Test results as given in patent publication US12422427B2, “Compounds for treatment of diseases and methods of screening therefor” (Max-Planck-Gesellschaft zur Förderung der Wissenschaften …, priority 2018, dated 2025).

Tests used:
FUS GFP [1] = molecular target: T1, FUS GFP (Homo sapiens, UniProt P35637); assay: In vitro purified FUS GFP droplet screen; type: biochemical; settings: low salt conditions, 1 mM DTT, up to 100 μM compound
T1 construct: His MBP (N, cleaved yes); made in house; host or cells: baculovirus/insect cell expression system
T1 sequence (P35637 1-526): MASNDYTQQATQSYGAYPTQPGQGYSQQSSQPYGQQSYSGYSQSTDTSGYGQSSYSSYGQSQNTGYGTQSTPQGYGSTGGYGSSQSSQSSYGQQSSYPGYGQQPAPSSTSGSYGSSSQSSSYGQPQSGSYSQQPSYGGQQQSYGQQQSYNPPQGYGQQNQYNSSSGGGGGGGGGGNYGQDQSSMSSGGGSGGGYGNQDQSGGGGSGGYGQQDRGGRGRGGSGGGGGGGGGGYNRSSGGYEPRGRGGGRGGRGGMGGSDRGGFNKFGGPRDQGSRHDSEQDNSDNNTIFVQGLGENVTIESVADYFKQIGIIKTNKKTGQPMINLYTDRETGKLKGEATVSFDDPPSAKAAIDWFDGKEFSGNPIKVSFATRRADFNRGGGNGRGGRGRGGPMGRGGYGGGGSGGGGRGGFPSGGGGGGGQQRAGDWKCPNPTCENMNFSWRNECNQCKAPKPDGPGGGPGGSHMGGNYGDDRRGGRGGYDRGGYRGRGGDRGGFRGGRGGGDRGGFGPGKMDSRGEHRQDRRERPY
Description: Compounds that can directly interact with FUS were of primary interest, therefore the inventors performed a follow up screen for action of compounds on FUS droplet formation in vitro (FIG. 1D). […] Hits were identified by the effect on number of FUS droplets formed and the partition of FUS into the droplets formed under low salt conditions in vitro in the presence of 1 mM DTT to mimic the reducing intracellular environment (FIG. 1E).
The effect of compounds on FUS GFP droplets in vitro was assessed in 384 well plate format. The compound volume (in DMSO) necessary for 1, 3, 10, 30 or 100 μM final concentration were added by acoustic dispensing (Labcyte Echo 550) to 96 well plate wells containing 3 μl FUS GFP diluted in 50 mM Tris. HCl pH 7.4, 1 mM DTT (for low salt assays). Final DMSO concentration was 0.01 to 1%. Using a Freedom Evo 200 liquid handling workstation (TECAN) the FUS GFP/compound mixture was diluted in 7 μl assay buffer containing 50 mM Tris. HCl pH 7.4, 1 mM DTT, 50 mM KCl and 0.7 μM FUS GFP. Compound/FUS GFP and assay buffer were mixed by a standardised pipetting procedure then split to four wells in clear bottom 384 well plates then immediately imaged using a CellVoyager CV7000 automated spinning disc confocal microscope (as above). […] Droplet number and FUS GFP partition into droplets were analysed with a fixed intensity threshold using ImageJ.

[2] = system: HeLa cells expressing FUS GFP; assay: HeLa cell compound dose responses (FUS GFP, arsenate stress); type: cell-based; settings: 1 h pre-treatment, 1 h arsenate stress
Description: Small dilution steps rather than concentration replicates were selected as it provides greater statistical power from a set number of samples. Final DMSO concentration was 0.08% in all samples, and each plate included at least 12 control wells with 0.08% DMSO. Cytoplasmic FUS droplet number and nuclear/cytoplasm partition of FUS were analysed using custom macros in ImageJ. Nuclei were identified by intensity thresholding of the blue fluorescence image following a 5 px Gaussian blur. Cytoplasmic FUS droplets by intensity thresholding of the green image following a 10 px weight 0.9 unsharp filter masked by the thresholded nuclei, and nuclear FUS droplets by intensity thresholding of the green image following a 5 px weight 0.9 unsharp filter and 10 px rolling ball background subtraction masked to only include thresholded nuclei. The ratio of cytoplasmic FUS drops to nuclei was taken as cytoplasmic FUS droplets per cell per field of view, and p, the ratio of partition of FUS to the nucleus and the cytoplasm, was derived from a=Vn/vt, the ratio of nuclear to total green signal per field of view, where p=a/(1−a). […] Six fields of view were captured and analysed per condition.

[3] = system: P bodies, Cajal bodies, PML bodies, DNA damage foci, nucleolus; assay: Effect on other non-membrane bound compartments in HeLa GFP marker lines; type: cell-based
Description: FIG. 4A) Images of HeLa cells expressing Protein GFP markers of other non-membrane bound compartments subject to 1 h treatment with 10 μM compound (or DMSO control). Where unclear, the position of nuclei is indicated with a dotted outline. […] FIG. 4B) Recruitment of FUS GFP to sites of UV laser-induced DNA damage in iPS cells after 1 h treatment with compound followed by 1 h arsenate stress.
Stress granules are one of several, similar, cytoplasmic RNA-containing liquid-like compartments. […] Several stress granule proteins also form nuclear bodies: nuclear paraspeckles, and foci at the sites of DNA damage. There are also many other nuclear liquid-like compartments. It was then asked whether lipoamide also affected these other bodies, using a panel of cell lines expressing GFP fusions. For this analysis, mitoxantrone was included as a representative of the heterotri-/tetracyclic compound class of hits (FIG. 1F). An overly-broad effect on liquid-like compartments would likely cause side-effects for a therapeutic.
The action of lipoamide is therefore specific to the signaling and/or physical chemistry driving stress granule formation, stress granule phase separation, and/or a specific signaling route. Stress granules normally form and dissolve rapidly in comparison to many other compartments.

FUS GFP [4] = assay: Ex vivo DNA cut assay: FUS GFP recruitment to UV laser-induced DNA damage; type: cell-based, human
Description: FUS is recruited to sites of DNA damage, and a potential mechanism contributing to ALS pathogenesis is reduced DNA damage response due to sequestration of FUS in the cytoplasm in stress granules. Strong association of FUS nuclear localization (NLS) mutations (e.g., P525L) with familial ALS mutations supports this hypothesis. The inventors therefore tested whether lipoamide affect FUS recruitment to sites of DNA damage induced by focused UV laser irradiation site, using arsenate-stressed iPSCs expressing FUS GFP (FIG. 4B). […] The action of lipoamide is therefore specific to cytoplasmic FUS liquid-like compartments, a therapeutically useful feature.
UV micro-irradiation of live cells was performed to induce DNA damage. KOLF iPS MNs expressing […] were […]. A single point in the nucleus was subject to 3 UV pulses as described for FRAP, but at 10% laser power. GFP fluorescence was imaged at 1 Hz, and intensity of response was analysed in ImageJ.

[5] = molecular target: T2, FUS low complexity domain (residues 1 to 163) (Homo sapiens, UniProt P35637); assay: 1H-15N HSQC NMR of FUS low complexity domain with compound; type: binding; settings: 500 μM compound
T2 construct: untagged FUS low complexity domain (residues 1 to 163) expressed, purified and analysed; made in house
T2 sequence (P35637 1-163): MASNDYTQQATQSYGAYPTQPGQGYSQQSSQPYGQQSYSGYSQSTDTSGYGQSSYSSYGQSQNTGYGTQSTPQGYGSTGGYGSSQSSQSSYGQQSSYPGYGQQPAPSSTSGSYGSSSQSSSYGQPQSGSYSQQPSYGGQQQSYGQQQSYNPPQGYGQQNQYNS
Description: Finally, mechanistic detail was analyzed at the sub-molecular level by using NMR of the FUS prion-like N-terminal LCD to determine putative sites of lipoamide interaction. The LCD is able to phase separate to form condensates in vitro and the individual residues can be resolved and assigned in a ^1H-^15N heteronuclear single quantum coherence spectrum. ^1H-^15N analyses reveal a change in environment of individual residues as indicated by their corresponding chemical shifts. The magnitude of chemical shift changes were compared with and without both lipoamide or mitoxantrone. […] This leaves several possibilities: Perhaps lipoamide interacts with the FUS LCD only when phase separated, potentially reducing viscosity, or interacts with the condensate phase boundary, perhaps increasing surface tension. Such interactions may reduce formation or expansion of aggregated forms of FUS involved in condensate hardening and reduced liquidity.
For analysis of compound interaction with FUS untagged FUS low complexity domain (residues 1 to 163) expressed, purified and analysed using ^1H-^15N heteronuclear single quantum coherence NMR and sample conditions previously described^14 in the presence of 500 μM compound or equivalent DMSO solvent control (1%).

With `O=C1c2c(O)ccc(O)c2C(=O)c2c(NCCNCCO)ccc(NCCNCCO)c21` [mitoxantrone, reference compound] the “FUS GFP droplet number, partition into droplets and droplet size” value (FUS GFP [1]) was “fewer smaller drops”, the “nuclear/cytoplasm FUS partition, dose response” value [2] was “decreased nuclear/cytoplasm FUS partition” and the “stress granule number, dose response” value [2] was “reducing stress granule number”. The “disruption of P bodies (DCP1A), Cajal bodies (COIL), DNA damage foci (TRP53BP1), nucleolus (NCB1)” value ([3]; 1 h treatment with 10 μM compound) was “non-stress granule specific effects”, the “localization of P-body, PML body and DNA damage focus proteins” value ([3]; conditions that would dissolve stress granules) was “affected all of these compartments to some extent” and the “FUS GFP recruitment to sites of DNA damage” value (FUS GFP [4]; concentrations not sufficient to dissolve cytoplasmic FUS droplets) was “blocked recruitment of FUS GFP to sites of DNA damage”. The “formation of nuclear FUS droplets at the sites of DNA damage (FIG. 4B legend)” value (FUS GFP [4]; iPS cells, arsenate stress) was “prevents formation of nuclear FUS droplets” and the “chemical shift changes of FUS LCD residues” value [5] was “weak shifts across the LCD”.
